Assay results reported in ChEMBL document CHEMBL1146447, “Evaluation of the antifungal activity of natural xanthones from Garcinia mangostana and their synthetic derivatives” (1997).

Legend:
Type in all cases: functional
[1] = tested on: Fusarium oxysporum f. sp. vasinfectum; assay: Antifungal activity against Fusarium oxysporum vasinfectum at 1000 ppm after 144 hrs at 24 hrs intervals
Alternaria alternata [2] = assay: Antifungal activity against Alternaria tenuis at 1000 ppm after 168 hrs at 24 hrs intervals
Drechslera [3] = assay: Antifungal activity against Drechslera oryzae at 1 ppm after 168 hrs at 24 hrs intervals
Drechslera [4] = assay: Antifungal activity against Drechslera oryzae at 10 ppm after 168 hrs at 24 hrs intervals
[5] = tested on: Fusarium oxysporum f. sp. vasinfectum; assay: Antifungal activity against Fusarium oxysporum vasinfectum at 100 ppm after 144 hrs at 24 hrs intervals
Drechslera [6] = assay: Antifungal activity against Drechslera oryzae at 100 ppm after 168 hrs at 24 hrs intervals
[7] = tested on: Fusarium oxysporum f. sp. vasinfectum; assay: Antifungal activity against Fusarium oxysporum vasinfectum at 10 ppm after 144 hrs at 24 hrs intervals
Alternaria alternata [8] = assay: Antifungal activity against Alternaria tenuis at 10 ppm after 168 hrs at 24 hrs intervals
Alternaria alternata [9] = assay: Antifungal activity against Alternaria tenuis at 100 ppm after 168 hrs at 24 hrs intervals
[10] = tested on: Fusarium oxysporum f. sp. vasinfectum; assay: Antifungal activity against Fusarium oxysporum vasinfectum at 1 ppm after 144 hrs at 24 hrs intervals
Drechslera [11] = assay: Antifungal activity against Drechslera oryzae at 1000 ppm after 168 hrs at 24 hrs intervals
Alternaria alternata [12] = assay: Antifungal activity against Alternaria tenuis at 1 ppm after 168 hrs at 24 hrs intervals

SMILES | inhibition at 1000 ppm [1] | inhibition at 1000 ppm (Alternaria alternata [2]) | inhibition at 1 ppm (Drechslera [3]) | inhibition at 10 ppm (Drechslera [4]) | inhibition at 100 ppm [5] | inhibition at 100 ppm (Drechslera [6]) | inhibition at 10 ppm [7] | inhibition at 10 ppm (Alternaria alternata [8]) | inhibition at 100 ppm (Alternaria alternata [9]) | inhibition at 1 ppm [10] | inhibition at 1000 ppm (Drechslera [11]) | inhibition at 1 ppm (Alternaria alternata [12])
CC(C)=CCc1c(O)cc2oc3cc(O)c(O)c(CC=C(C)C)c3c(=O)c2c1O | 64% | 58% | 5% | 35% | 50% | 81% | 6% | 9% | 33% | 0% | 85% | 1%
COc1c(OC(C)C)cc2oc3cc(OC(C)C)c(CC=C(C)C)c(O)c3c(=O)c2c1CC=C(C)C | 3% | 1% | -1% | 4% | 4% | 1% | 1% | 2% | -1% | 3% | 9% | -10%
C=CCOc1cc2oc3cc(OCC=C)c(OC)c(CC=C(C)C)c3c(=O)c2c(O)c1CC=C(C)C | 1% | 42% | -19% | -18% | 4% | -4% | 1% | -13% | 8% | 0% | -34% | -22%
COc1c(O)cc2oc3cc4c(c(O)c3c(=O)c2c1CC=C(C)C)CCC(C)(C)O4 | 18% | 31% | 29% | 45% | 19% | 58% | 8% | 15% | 28% | 4% | 61% | 11%
COc1cc2oc3cc(OC)c(OC)c(CC=C(C)C)c3c(=O)c2c(O)c1CC=C(C)C | 17% | 16% | 7% | 9% | 16% | 27% | 12% | 22% | 16% | 5% | 41% | 14%
CCCOc1cc2oc3cc(OCCC)c(OC)c(CC=C(C)C)c3c(=O)c2c(O)c1CC=C(C)C | -2% | 1% | 8% | -25% | -6% | -36% | 5% | -3% | -2% | -4% | -10% | -6%
COc1c(OC(C)=O)cc2oc3cc(OC(C)=O)c(CC=C(C)C)c(O)c3c(=O)c2c1CC=C(C)C | 3% | -6% | 11% | 51% | 4% | 11% | 5% | 6% | 6% | 6% | 14% | 8%
CCCCOc1cc2oc3cc(OCCCC)c(OC)c(CC=C(C)C)c3c(=O)c2c(O)c1CC=C(C)C | -3% | -5% | -38% | -38% | -4% | -66% | -4% | 4% | -2% | -7% | -69% | 1%
S=c1c2ccccc2oc2ccccc12 | 6% | -32% | 11% | 5% | 4% | -11% | 4% | -12% | -22% | 2% | 10% | -6%
C=C(C)COc1cc2oc3cc(OCC(=C)C)c(OC)c(CC=C(C)C)c3c(=O)c2c(O)c1CC=C(C)C | 9% | -1% | -1% | -1% | 3% | -1% | 2% | -2% | 4% | 1% | 17% | -8%
CCOc1cc2oc3cc(OCC)c(OC)c(CC=C(C)C)c3c(=O)c2c(O)c1CC=C(C)C | -1% | -1% | -72% | -34% | -3% | -31% | -2% | 4% | -11% | -3% | -57% | -4%
CC1(C)CCc2c(cc3oc4cc(O)c5c(c4c(=O)c3c2O)CCC(C)(C)O5)O1 [BR-XANTHONE A] | 3% | 14% | 27% | 28% | 0% | 31% | 0% | 18% | 15% | 3% | 36% | 14%
COc1c(O)cc2oc3cc(O)c(CC=C(C)C)c(O)c3c(=O)c2c1CCC(C)(C)O [GARCINONE D] | 41% | 26% | 27% | 30% | 12% | 43% | 10% | 2% | -11% | -1% | 64% | -7%
CC(C)=CCc1c(O)c(CC=C(C)C)c2oc3c(O)ccc(O)c3c(=O)c2c1O [GARTANIN] | 12% | 29% | 18% | 54% | 9% | 75% | 4% | 20% | 22% | 3% | 71% | 4%
COc1c(O)cc2oc3cc(O)c(CC=C(C)C)c(O)c3c(=O)c2c1CC=C(C)C [MANGOSTIN] | 24% | 41% | 55% | 51% | 29% | 54% | 22% | 38% | 39% | 11% | 53% | 17%
O=c1c2ccccc2oc2ccccc12 [XANTHONE] | 6% | -14% | 19% | 29% | 1% | 34% | 8% | 5% | -6% | -2% | 3% | -43%
